Tests used:
tonsil TCM and TEM cells = test: Transwell migration of tonsil memory T cells (TCM, TEM) in presence of S1P; type: cell-based, human; details: for Impact on memory T cell migration in the presence of S1P: tonsil memory T cells
[1] = system: act-CD4+ and act-CD8+ T cells; test: Transwell migration of tonsil recently activated T cells (CD38+HLA-DR+) in presence of S1P; type: cell-based, human
From the text: Upon antigen-mediated activation, T cells are retained within secondary lymphoid organs, presumably to sustain their activation and differentiation through serial interactions with antigen presenting cells. Mechanistically, it was previously reported that mouse T cells lose their reactivity during this phase by down regulating S1PR1 expression (Matloubian et al., 2004). We addressed this point in human, exploiting the fact that tonsils contain act-T cells in a variable proportion, classically defined as CD38^+HLA-DR^+.

tonsil T cell subsets = test: Transwell migration of tonsil T cell subsets toward CXCL12 +/- S1P
Procedure: Results are shown as migration index.
All material was used after obtaining informed consent and the research was conducted in accordance with the Helsinki Declaration. […] Pediatric tonsils were obtained from patients undergoing tonsillectomy and were cut into pieces using a scalpel and then passed through a 70 μM cell strained to produce a cell suspension. Cells were then ficollized and washed before migration studies.
Tonsil lymphocytes or PBMC were suspended in RPMI1640 supplemented with 4 mg/ml fatty acid-free bovine albumin (Sigma, St-Louis, USA). […] Cell migration was analyzed in Transwell chambers (Costar, Cambridge, USA) with 5 μm pore-width polycarbonate filters. […] PBMC or tonsil cells were added to the top chambers of the transwell systems in the presence or absence of the pharmacological inhibitors and incubated at 37° C. for 2 hours. The chemoattractants were then added in the lower chamber and the cells were allowed to migrate for 2 hours. Transmigrated cells were stained for CD3 (UCHT1), CD4 (RPA-T4), CD8 (RPA-T8), CD45RO (UCHL1), CCR7 (G043H7), CD69 (FN50), CD103 (Ber-act8), CD38 (HIT32) and HLA-DR (LN3) and analyzed/counted by flow cytometry (MACSquant, Miltenyi biotec, Bergisch Gladbach, Germany). All antibodies were purchased from BD-Biosciences (San Jose, Calif.), eBioscience (San Diego, Calif.), Beckman-Coulter (Miami, Fla.) or Biolegend (San Diego, Calif.). […] The percentage of input was calculated as the ratio between the number of cells migrating in a given condition and the number of cells used for the chemotaxis assay.

S1PR1 = S1PR1 (Homo sapiens, UniProt P21453); details: read-out: Kd of S1P to S1PR1; cited from earlier work
S1PR1, sequence (P21453 whole entry, species assumed): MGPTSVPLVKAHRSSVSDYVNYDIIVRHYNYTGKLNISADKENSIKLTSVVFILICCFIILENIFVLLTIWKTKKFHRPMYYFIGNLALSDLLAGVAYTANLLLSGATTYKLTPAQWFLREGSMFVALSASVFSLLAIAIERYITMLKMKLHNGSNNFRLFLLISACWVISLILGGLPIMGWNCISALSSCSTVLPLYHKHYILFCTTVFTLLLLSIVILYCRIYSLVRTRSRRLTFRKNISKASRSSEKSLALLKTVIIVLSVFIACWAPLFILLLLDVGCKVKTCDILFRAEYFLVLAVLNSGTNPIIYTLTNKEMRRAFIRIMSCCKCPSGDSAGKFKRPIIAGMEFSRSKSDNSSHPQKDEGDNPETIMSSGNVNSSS

[2] = system: tonsil CD4+ TRM cells (CD69 positive); test: Transwell migration of tonsil resident memory T cells (TRM) in presence of S1P; details: irrespective of CD103 expression
Procedure: All material was used after obtaining informed consent and the research was conducted in accordance with the Helsinki Declaration. Human peripheral blood was obtained from healthy donors. Cells were ficollized and then washed several times in complete medium before resuspension in chemotaxis medium. Pediatric tonsils were obtained from patients undergoing tonsillectomy and were cut into pieces using a scalpel and then passed through a 70 μM cell strained to produce a cell suspension. Cells were then ficollized and washed before migration studies.
Tonsil lymphocytes or PBMC were suspended in RPMI1640 supplemented with 4 mg/ml fatty acid-free bovine albumin (Sigma, St-Louis, USA). […] Cell migration was analyzed in Transwell chambers (Costar, Cambridge, USA) with 5 μm pore-width polycarbonate filters. […] Transmigrated cells were stained for CD3 (UCHT1), CD4 (RPA-T4), CD8 (RPA-T8), CD45RO (UCHL1), CCR7 (G043H7), CD69 (FN50), CD103 (Ber-act8), CD38 (HIT32) and HLA-DR (LN3) and analyzed/counted by flow cytometry (MACSquant, Miltenyi biotec, Bergisch Gladbach, Germany). […] The percentage of input was calculated as the ratio between the number of cells migrating in a given condition and the number of cells used for the chemotaxis assay.

tonsil naive T cells = test: Transwell chemotaxis of tonsil naive T cells towards S1P; type: cell-based, human; details: for Effect of pharmacological inhibitor on tonsil naive T cell migration to S1P: tonsil naive T cells, 2 h pre-incubation with inhibitor
blood T cells = test: Transwell chemotaxis of blood T cells (PBMC) towards S1P; type: cell-based, human
From the text: T cell subsets were identified by flow cytometry.

[3] = system: peripheral T cells and NK cells; details: cited from earlier work

For `CCCCCCCCCCCCC/C=C/[C@@H](O)[C@@H](N)COP(=O)(O)O` [S1P, Sphingosine-1 phosphate], the “Effect of S1P on spontaneous migration of tonsil TCM and TEM cells” value (tonsil TCM and TEM cells; S1P in lower chamber, especially memory CD4 T cells) was “inhibited”, the “Effect of S1P on spontaneous migration of act-CD4+ and act-CD8+ T cells” value [1] was “strongly inhibited” and the “Effect of S1P on CXCL12-induced migration of TEM cells” value (tonsil T cell subsets; S1P 37 nM in lower chamber) was “decreased”. For the same compound, the “Effect of S1P on CXCL12-induced migration of naive CD4 and CD8 T cells” value (tonsil T cell subsets; S1P 37 nM in lower chamber) was “slightly increased”, the Kd (S1PR1) was 8 nM and the “Effect of S1P on spontaneous migration of CD4+ TRM cells” value [2] was “inhibited”. For the same compound, the “Effect of S1P gradients on tonsil naive T cell chemotaxis” value (tonsil naive T cells; compared to control without S1P) was “strongly increased”, the “S1P concentration giving maximum migration of tonsil naive T cells” value (tonsil naive T cells; transwell, S1P gradient) was 30 to 60 nM and the “Response of blood memory T cells to S1P” value (blood T cells; PBMC) was “did not respond”. The “Response of blood naive T cells to S1P” value (blood T cells; PBMC from healthy donors) was “did not respond”.
For `CCCCCCCCc1ccc(CCC(N)(CO)CO)cc1` [FTY720], the “Impact on memory T cell migration in the presence of S1P” value (tonsil TCM and TEM cells) is listed as “negative impact”, the “Effect on peripheral TEM cells and NK cells in treated patients” value [3] is listed as “does not affect” and the “Effect on peripheral naive and central memory T cells in treated patients” value [3] is listed as “quick decrease”. The “Effect of pharmacological inhibitor on tonsil naive T cell migration to S1P” value (“Effect of pharmacological inhibitor” below) (tonsil naive T cells; S1P gradient) was “strongly inhibited”.
For `FC(F)(F)c1cccc(-c2noc(-c3cc(-c4ccccc4)c(C(F)(F)F)s3)n2)c1` [SEW2871], the “Impact on memory T cell migration in the presence of S1P” value (tonsil TCM and TEM cells) was “negative impact” and the “Effect of pharmacological inhibitor” value (tonsil naive T cells; S1P gradient) was “strongly inhibited”.
In the case of `Cc1cc(CN)cc(C)c1NC(=O)c1ccc(-c2cc(Cl)ccc2Cl)o1` [CYM50358], the “Effect of pharmacological inhibitor” value (tonsil naive T cells; S1P gradient) is reported as “insensitive”.
With `Cc1nn(C)c2nc(NNC(=O)Nc3cc(Cl)nc(Cl)c3)cc(C(C)C)c12` [JTE-013] the “Effect on the inhibitory effect of S1P on TCM and TEM migration” value (tonsil TCM and TEM cells; tonsil TCM and TEM cells) was “abrogated”, the “Effect on S1P inhibition of spontaneous migration of act-CD4+ and act-CD8+ T cells” value ([1]; CD38+HLA-DR+ tonsil T cells) was “curbed” and the “Effect on S1P-mediated decrease of CXCL12-induced migration of TEM and TCM cells” value (tonsil T cell subsets; CXCL12 12 ng/ml, S1P 37 nM, JTE-013 1000 nM for 2 h) was “abrogated”. The “Effect on S1P inhibition of spontaneous migration of CD4+ TRM cells” value ([2]; CD69 positive) was “abrogated” and the “Effect of pharmacological inhibitor” value (tonsil naive T cells; S1P gradient) was “increased”.

From patent US20210038502A1, “S1PR2 ANTAGONISTS FOR TREATING DISEASES INVOLVING ABNORMAL IMMUNE RESPONSES” (INSERM (Institut National de la Santé et de la Recherche …, priority 2017, published 2021)
